# Laboratory results as given in publication PMC10176470, “Engaging a Non-catalytic Cysteine Residue Drives Potent and Selective Inhibition of Caspase-6” (Journal of the American Chemical Society, 2023).
# Experiments:
# Assay type in all cases: cell-based
# [1] = biological target: proteins of HEK293T cells transiently overexpressing caspase-6 (Homo sapiens, UniProt Q9NTK5); settings: protein OLA1 (Q9NTK5), analysis C6
# [2] = biological target: proteins of HEK293T cells transiently overexpressing caspase-6 (Homo sapiens, UniProt P26640); settings: Probe; protein VARS P26640
# proteins of HEK293T cells transiently overexpressing caspase-6 (Homo sapiens, UniProt P26640), sequence (P26640 whole entry): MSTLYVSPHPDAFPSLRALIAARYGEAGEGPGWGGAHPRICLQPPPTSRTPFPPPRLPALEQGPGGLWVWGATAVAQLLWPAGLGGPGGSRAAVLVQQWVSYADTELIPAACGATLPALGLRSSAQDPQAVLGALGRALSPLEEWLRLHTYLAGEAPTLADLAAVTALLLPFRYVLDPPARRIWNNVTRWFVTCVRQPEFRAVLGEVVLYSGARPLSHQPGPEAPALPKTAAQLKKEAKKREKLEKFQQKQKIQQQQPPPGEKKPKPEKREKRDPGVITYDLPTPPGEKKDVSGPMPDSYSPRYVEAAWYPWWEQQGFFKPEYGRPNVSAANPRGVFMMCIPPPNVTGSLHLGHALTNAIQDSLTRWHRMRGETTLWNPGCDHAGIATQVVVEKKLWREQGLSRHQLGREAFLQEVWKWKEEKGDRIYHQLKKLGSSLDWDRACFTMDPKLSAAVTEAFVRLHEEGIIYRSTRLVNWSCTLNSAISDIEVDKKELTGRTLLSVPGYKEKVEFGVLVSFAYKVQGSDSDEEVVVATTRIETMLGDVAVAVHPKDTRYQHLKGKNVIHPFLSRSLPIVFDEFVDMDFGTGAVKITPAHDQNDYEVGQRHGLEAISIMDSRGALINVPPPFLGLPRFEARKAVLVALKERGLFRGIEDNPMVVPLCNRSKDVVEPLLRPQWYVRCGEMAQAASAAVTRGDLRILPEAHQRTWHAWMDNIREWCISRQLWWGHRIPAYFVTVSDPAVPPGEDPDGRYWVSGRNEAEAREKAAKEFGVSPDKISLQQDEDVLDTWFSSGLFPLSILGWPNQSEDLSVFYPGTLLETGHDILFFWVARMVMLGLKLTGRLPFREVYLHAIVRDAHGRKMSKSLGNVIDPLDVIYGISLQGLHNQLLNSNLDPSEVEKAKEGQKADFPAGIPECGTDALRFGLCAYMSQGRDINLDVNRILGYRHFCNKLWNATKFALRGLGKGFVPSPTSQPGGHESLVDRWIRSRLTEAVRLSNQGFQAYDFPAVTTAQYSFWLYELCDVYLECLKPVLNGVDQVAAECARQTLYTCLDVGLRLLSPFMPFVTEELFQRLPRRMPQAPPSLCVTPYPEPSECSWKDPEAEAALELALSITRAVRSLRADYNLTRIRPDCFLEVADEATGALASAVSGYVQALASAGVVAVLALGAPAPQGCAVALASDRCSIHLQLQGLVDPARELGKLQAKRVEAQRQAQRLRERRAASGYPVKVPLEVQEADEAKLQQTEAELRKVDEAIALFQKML
# [3] = biological target: proteins of HEK293T cells transiently overexpressing caspase-6 (Homo sapiens, UniProt P49023); settings: Probe; protein PXN P49023
# proteins of HEK293T cells transiently overexpressing caspase-6 (Homo sapiens, UniProt P49023), sequence (P49023 whole entry): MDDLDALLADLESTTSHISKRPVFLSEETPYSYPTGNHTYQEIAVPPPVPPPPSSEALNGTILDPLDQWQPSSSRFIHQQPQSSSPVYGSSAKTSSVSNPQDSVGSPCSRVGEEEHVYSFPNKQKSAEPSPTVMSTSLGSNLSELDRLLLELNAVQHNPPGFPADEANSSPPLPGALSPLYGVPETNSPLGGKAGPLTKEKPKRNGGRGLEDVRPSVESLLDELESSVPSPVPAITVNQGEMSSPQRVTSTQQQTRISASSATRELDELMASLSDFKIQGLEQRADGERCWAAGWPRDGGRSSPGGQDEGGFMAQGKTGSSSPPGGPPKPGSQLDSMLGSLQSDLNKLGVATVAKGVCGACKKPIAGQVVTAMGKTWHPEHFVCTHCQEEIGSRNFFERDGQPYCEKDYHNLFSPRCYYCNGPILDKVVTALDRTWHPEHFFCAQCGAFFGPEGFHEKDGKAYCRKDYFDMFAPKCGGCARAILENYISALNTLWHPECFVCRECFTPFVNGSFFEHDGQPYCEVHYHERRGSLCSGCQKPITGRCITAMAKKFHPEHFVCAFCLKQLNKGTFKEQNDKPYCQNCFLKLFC
# [4] = biological target: T1, proteins of HEK293T cells transiently overexpressing caspase-6 (Homo sapiens, UniProt Q9BQG0); settings: protein MYBBP1A (Q9BQG0)
# T1 sequence (Q9BQG0 1-1328): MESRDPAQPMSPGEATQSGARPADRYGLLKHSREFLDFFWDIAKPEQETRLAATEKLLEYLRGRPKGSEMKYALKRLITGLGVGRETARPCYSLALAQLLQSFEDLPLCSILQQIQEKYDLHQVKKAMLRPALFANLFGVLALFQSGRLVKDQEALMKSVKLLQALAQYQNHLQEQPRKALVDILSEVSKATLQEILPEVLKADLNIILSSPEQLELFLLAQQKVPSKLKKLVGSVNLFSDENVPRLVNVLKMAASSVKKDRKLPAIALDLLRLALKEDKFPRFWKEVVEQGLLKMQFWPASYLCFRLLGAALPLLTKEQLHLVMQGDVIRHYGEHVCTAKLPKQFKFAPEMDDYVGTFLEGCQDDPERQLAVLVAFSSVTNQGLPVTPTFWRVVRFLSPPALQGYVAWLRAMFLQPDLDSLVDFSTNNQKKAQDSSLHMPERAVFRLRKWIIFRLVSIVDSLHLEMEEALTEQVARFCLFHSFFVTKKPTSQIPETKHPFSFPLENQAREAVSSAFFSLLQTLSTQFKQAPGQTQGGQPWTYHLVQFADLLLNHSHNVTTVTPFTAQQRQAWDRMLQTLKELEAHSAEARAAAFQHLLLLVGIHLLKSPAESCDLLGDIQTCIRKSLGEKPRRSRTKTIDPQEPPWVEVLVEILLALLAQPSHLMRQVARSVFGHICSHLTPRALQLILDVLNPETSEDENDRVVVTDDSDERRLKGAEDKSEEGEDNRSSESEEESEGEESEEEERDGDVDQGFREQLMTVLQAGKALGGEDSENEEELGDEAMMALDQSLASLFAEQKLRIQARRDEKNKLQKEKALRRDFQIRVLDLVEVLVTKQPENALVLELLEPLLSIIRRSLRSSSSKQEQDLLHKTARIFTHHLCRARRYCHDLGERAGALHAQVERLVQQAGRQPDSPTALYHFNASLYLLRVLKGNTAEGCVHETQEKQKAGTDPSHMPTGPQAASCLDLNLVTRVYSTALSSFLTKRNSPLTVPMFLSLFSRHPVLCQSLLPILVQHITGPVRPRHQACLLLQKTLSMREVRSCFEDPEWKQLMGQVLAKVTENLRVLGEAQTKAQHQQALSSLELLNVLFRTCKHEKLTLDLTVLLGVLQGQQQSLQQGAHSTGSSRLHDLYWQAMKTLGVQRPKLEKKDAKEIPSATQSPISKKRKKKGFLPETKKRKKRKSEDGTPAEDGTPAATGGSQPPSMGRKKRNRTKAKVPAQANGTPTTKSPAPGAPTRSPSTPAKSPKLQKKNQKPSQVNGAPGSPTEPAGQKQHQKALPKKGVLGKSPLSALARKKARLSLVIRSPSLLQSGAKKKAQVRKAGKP
# [5] = biological target: T2, proteins of HEK293T cells transiently overexpressing caspase-6 (Homo sapiens, UniProt O43175); settings: protein PHGDH (O43175)
# T2 sequence (O43175 1-533): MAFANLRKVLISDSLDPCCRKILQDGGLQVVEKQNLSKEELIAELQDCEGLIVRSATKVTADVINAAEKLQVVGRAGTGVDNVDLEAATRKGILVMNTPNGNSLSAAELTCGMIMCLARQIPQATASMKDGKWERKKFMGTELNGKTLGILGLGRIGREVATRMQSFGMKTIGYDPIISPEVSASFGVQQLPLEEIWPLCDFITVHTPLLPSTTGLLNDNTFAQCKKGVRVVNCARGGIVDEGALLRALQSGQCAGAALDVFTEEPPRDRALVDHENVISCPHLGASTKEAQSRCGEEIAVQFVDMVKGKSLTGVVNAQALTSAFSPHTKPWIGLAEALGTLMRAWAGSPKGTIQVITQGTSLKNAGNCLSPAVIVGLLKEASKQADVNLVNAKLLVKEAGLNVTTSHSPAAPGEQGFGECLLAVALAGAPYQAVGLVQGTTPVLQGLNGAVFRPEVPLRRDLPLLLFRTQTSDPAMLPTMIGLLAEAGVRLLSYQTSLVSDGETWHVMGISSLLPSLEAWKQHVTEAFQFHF
# [6] = biological target: proteins of HEK293T cells transiently overexpressing caspase-6 (Homo sapiens, UniProt O94919); settings: exp_ref Probe; protein ENDOD1 (O94919); analysis C6
# proteins of HEK293T cells transiently overexpressing caspase-6 (Homo sapiens, UniProt O94919), sequence (O94919 22-500): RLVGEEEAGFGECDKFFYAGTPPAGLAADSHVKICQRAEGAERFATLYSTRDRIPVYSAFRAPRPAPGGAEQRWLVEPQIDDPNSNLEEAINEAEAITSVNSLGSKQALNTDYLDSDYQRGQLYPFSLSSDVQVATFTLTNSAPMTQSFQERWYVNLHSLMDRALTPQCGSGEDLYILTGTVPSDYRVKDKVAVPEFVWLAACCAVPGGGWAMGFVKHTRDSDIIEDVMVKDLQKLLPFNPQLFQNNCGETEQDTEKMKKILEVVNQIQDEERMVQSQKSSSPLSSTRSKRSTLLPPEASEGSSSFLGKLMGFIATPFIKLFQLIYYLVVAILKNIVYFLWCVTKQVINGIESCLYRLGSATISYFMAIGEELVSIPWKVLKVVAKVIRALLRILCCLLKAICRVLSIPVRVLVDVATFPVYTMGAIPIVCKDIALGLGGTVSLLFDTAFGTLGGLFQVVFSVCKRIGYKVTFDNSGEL
# [7] = biological target: proteins of HEK293T cells transiently overexpressing caspase-6 (Homo sapiens, UniProt P54886); settings: exp_ref Probe; protein ALDH18A1 (P54886); analysis C6
# proteins of HEK293T cells transiently overexpressing caspase-6 (Homo sapiens, UniProt P54886), sequence (P54886 whole entry): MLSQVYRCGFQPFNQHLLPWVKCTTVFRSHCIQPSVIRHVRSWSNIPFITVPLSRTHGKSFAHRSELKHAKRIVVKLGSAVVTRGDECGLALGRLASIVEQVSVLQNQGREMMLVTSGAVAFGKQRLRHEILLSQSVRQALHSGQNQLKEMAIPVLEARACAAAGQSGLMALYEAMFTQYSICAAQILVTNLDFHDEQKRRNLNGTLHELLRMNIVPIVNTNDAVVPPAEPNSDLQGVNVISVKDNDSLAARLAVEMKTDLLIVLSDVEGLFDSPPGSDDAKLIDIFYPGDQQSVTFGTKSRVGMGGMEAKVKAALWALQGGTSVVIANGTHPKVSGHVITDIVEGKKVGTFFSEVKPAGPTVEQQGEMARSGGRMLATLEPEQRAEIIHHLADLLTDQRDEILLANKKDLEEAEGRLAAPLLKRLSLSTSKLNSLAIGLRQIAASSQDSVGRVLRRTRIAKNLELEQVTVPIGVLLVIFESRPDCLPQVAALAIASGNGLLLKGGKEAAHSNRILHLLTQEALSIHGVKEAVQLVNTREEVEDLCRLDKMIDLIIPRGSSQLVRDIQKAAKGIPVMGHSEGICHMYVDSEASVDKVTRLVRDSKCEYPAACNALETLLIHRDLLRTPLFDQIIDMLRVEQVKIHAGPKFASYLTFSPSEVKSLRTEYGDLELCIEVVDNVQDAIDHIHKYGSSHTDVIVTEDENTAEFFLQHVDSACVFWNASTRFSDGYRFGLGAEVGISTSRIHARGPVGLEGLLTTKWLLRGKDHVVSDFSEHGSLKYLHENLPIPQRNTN
structure (smiles),measurement,setting,value
C#CCOc1ccc([C@@H]2C[C@@H](C(=O)Nc3ccc(OC(F)(F)F)cc3)CN(S(=O)(=O)C=C)C2)cc1 (relative stereo) [13-t],enrich.exp.med.lin,[1]; Expt Probe,6.528
same,enrich.exp.med.log2,[1]; Expt Probe,2.707
same,enrich.exp.med,[1]; exp_ref Probe,2.707
same,enrich.exp.med,[2],-1.705
same,enrich.exp.med,[3],-1.7768
same,enrich.exp.med,"[4]; exp_ref Probe, analysis C6",1.154
same,enrich.exp.med.lin,[4],2.225
same,enrich.exp.med.log2,[4],1.154
same,enrich.exp.med,"[5]; exp_ref Probe, analysis C6",1.1798
same,enrich.exp.med.lin,[5],2.265
same,enrich.exp.med.log2,[5],1.1798
same,enrich.exp.med,[6],-0.1243
same,enrich.exp.med,[7],0.3406
